Test results reported in US8877748B2, “Heterocyclic fused anthraquinone derivatives, manufacturing method and pharmaceutical composition using thereof” (National Defense Medical Center, priority 2012, dated 2014).
Where two headings read alike, the source gives them in different places.

Tests used:
OVCAR-3 = assay: NCI one-dose screening, ovarian cancer OVCAR-3; type: cell-based, human; conditions: 10 μM
NCI-H460 = assay: NCI one-dose screening, non-small cell lung cancer NCI-H460; type: cell-based, human; conditions: 10 μM
NCI-H522 = assay: NCI one-dose screening, non-small cell lung cancer NCI-H522; type: cell-based, human; conditions: 10 μM
NCI-H23 = assay: NCI one-dose screening, non-small cell lung cancer NCI-H23; type: cell-based, human; conditions: 10 μM
A549/ATCC = assay: NCI one-dose screening, non-small cell lung cancer A549/ATCC; type: cell-based, human; conditions: 10 μM
HCT-15 = assay: NCI one-dose screening, colon cancer HCT-15; type: cell-based, human; conditions: 10 μM
T-47D = assay: NCI one-dose screening, breast cancer T-47D; type: cell-based, human; conditions: 10 μM
SR = assay: NCI one-dose screening, leukemia SR; type: cell-based, human; conditions: 10 μM
human tumor cell lines = assay: NCI one-dose screening, Mean / Delta / Range of growth percent over all tested cell lines; type: cell-based; conditions: 10 μM
HCT-116 = assay: NCI one-dose screening, colon cancer HCT-116; type: cell-based, human; conditions: 10 μM
SNB-19 = assay: NCI one-dose screening, CNS cancer SNB-19; type: cell-based, human; conditions: 10 μM
RXF, 393 = assay: NCI one-dose screening, renal cancer RXF, 393; type: cell-based, human; conditions: 10 μM
UACC-257 = assay: NCI one-dose screening, melanoma UACC-257; type: cell-based, human; conditions: 10 μM
HOP-92 = assay: NCI one-dose screening, non-small cell lung cancer HOP-92; type: cell-based, human; conditions: 10 μM
MALME-3M = assay: NCI one-dose screening, melanoma MALME-3M; type: cell-based, human; conditions: 10 μM
SK-MEL-5 = assay: NCI one-dose screening, melanoma SK-MEL-5; type: cell-based, human; conditions: 10 μM
MDA, -MB-435 = assay: NCI one-dose screening, breast cancer MDA, -MB-435; type: cell-based, human; conditions: 10 μM; listed under Melanoma
U251 = assay: NCI one-dose screening, CNS cancer U251; type: cell-based, human; conditions: 10 μM
IGROV1 = assay: NCI one-dose screening, ovarian cancer IGROV1; type: cell-based, human; conditions: 10 μM
[1] = NCI one-dose screening, renal cancer A489; type: cell-based, human; conditions: 10 μM
COLO 205 = assay: NCI one-dose screening, colon cancer COLO 205; type: cell-based, human; conditions: 10 μM
M14 = assay: NCI one-dose screening, melanoma M14; type: cell-based, human; conditions: 10 μM
UO-31 = assay: NCI one-dose screening, renal cancer UO-31; type: cell-based, human; conditions: 10 μM
MDA-MB-468 = assay: NCI one-dose screening, breast cancer MDA-MB-468; type: cell-based, human; conditions: 10 μM
OVCAR-8 = assay: NCI one-dose screening, ovarian cancer OVCAR-8; type: cell-based, human; conditions: 10 μM
SF-539 = assay: NCI one-dose screening, CNS cancer SF-539; type: cell-based, human; conditions: 10 μM
SN12C = assay: NCI one-dose screening, renal cancer SN12C; type: cell-based, human; conditions: 10 μM
SNB-75 = assay: NCI one-dose screening, CNS cancer SNB-75; type: cell-based, human; conditions: 10 μM
BT-549 = assay: NCI one-dose screening, breast cancer BT-549; type: cell-based, human; conditions: 10 μM
KM12 = assay: NCI one-dose screening, colon cancer KM12; type: cell-based, human; conditions: 10 μM
NCI-H322M = assay: NCI one-dose screening, non-small cell lung cancer NCI-H322M; type: cell-based, human; conditions: 10 μM; Non-small cell lung cancer
SK-OV-3 = assay: NCI one-dose screening, ovarian cancer SK-OV-3; type: cell-based, human; conditions: 10 μM
PRMI-8226 cell line = assay: NCI one-dose screening, leukemia PRMI-8226; type: cell-based, human; conditions: 10 μM
MCF7 = assay: NCI one-dose screening, breast cancer MCF7; type: cell-based, human; conditions: 10 μM
MDA-MB-231/ATCC = assay: NCI one-dose screening, breast cancer MDA-MB-231/ATCC; type: cell-based, human; conditions: 10 μM
UACC-62 = assay: NCI one-dose screening, melanoma UACC-62; type: cell-based, human; conditions: 10 μM
CCRF-CEM = assay: NCI screening platform one-dose single concentration screening, leukemia CCRF-CEM; type: cell-based, human; conditions: 10 μM
SF-295 = assay: NCI one-dose screening, CNS cancer SF-295; type: cell-based, human; conditions: 10 μM
HS 578-T = assay: NCI one-dose screening, breast cancer HS 578-T; type: cell-based, human; conditions: 10 μM; Breast cancer
SF-268 = assay: NCI one-dose screening, CNS cancer SF-268; type: cell-based, human; conditions: 10 μM
PC-3 = assay: NCI one-dose screening, prostate cancer PC-3; type: cell-based, human; conditions: 10 μM
786-O = assay: NCI one-dose screening, renal cancer 786-O; type: cell-based, human; conditions: 10 μM
[2] = test system: PC-3 prostate cancer cell line; assay: SRB assay cell viability, PC-3 prostate cancer cell line; type: cell-based, human; conditions: Homo sapiens
SK-MEL-28 = assay: NCI one-dose screening, melanoma SK-MEL-28; type: cell-based, human; conditions: 10 μM
OVCAR-4 = assay: NCI one-dose screening, ovarian cancer OVCAR-4; type: cell-based, human; conditions: 10 μM
DU145 = assay: NCI one-dose screening, prostate cancer DU145; type: cell-based, human; conditions: 10 μM
HCC-2998 = assay: NCI one-dose screening, colon cancer HCC-2998; type: cell-based, human; conditions: 10 μM
LOX IMVI = assay: NCI one-dose screening, melanoma LOX IMVI; type: cell-based, human; conditions: 10 μM
SK-MEL-2 = assay: NCI one-dose screening, melanoma SK-MEL-2; type: cell-based, human; conditions: 10 μM
MOLT-4 = assay: NCI one-dose screening, leukemia MOLT-4; type: cell-based, human; conditions: 10 μM
HL-60, TB = assay: NCI one-dose screening, leukemia HL-60, TB; type: cell-based, human; conditions: 10 μM
NCl/ADR-RES = assay: NCI one-dose screening, breast cancer NCl/ADR-RES; type: cell-based, human; conditions: 10 μM; listed under Ovarian cancer
CAKI-1 = assay: NCI one-dose screening, renal cancer CAKI-1; type: cell-based, human; conditions: 10 μM
TK-10 = assay: NCI one-dose screening, renal cancer TK-10; type: cell-based, human; conditions: 10 μM
HOP-62 = assay: NCI one-dose screening, non-small cell lung cancer HOP-62; type: cell-based, human; conditions: 10 μM
K562cell line = assay: NCI one-dose screening, leukemia K562; type: cell-based, human; conditions: 10 μM
[3] = PC-3 prostate cancer cell line, Table II prints no unit, μM printed, read-out: SRB assay: 50% inhibition of cancer cell proliferation of sample concentration (IC50) of PC-3 prostate cancer cell line

O=C1c2ccccc2C(=O)c2c1cc(SCc1ccccc1)c1nsnc21 [C21, 4-(benzyl-thio)anthra[2,1-c][1,2,5] thiadiazol-6,11-dione]
Growth Percent OVCAR-3 (OVCAR-3): 25.27% | Growth Percent NCI-H460 (NCI-H460): 98.44% | Growth Percent NCI-H522 (NCI-H522): 92.01% | Growth Percent NCI-H23 (NCI-H23): 101.09% | Growth Percent A549/ATCC (A549/ATCC): 101.64% | Growth Percent HCT-15 (HCT-15): 54.72% | Growth Percent T-47D (T-47D): −46.11% | Growth Percent SR (SR): 1.25% | Growth Percent Delta (human tumor cell lines; delta over all cell lines): 136.92% | Growth Percent Mean (human tumor cell lines; mean over all cell lines): 51.63% | Growth Percent Range (human tumor cell lines; range over all cell lines): 215.19% | Growth Percent HCT-116 (HCT-116): 53.06% | Growth Percent SNB-19 (SNB-19): 94.26% | Growth Percent RXF 393 (RXF, 393): 68.12% | Growth Percent UACC-257 (UACC-257): 58.86% | Growth Percent HOP-92 (HOP-92): 83.65% | Growth Percent MALME-3M (MALME-3M): 80.81% | Growth Percent SK-MEL-5 (SK-MEL-5): 22.53% | Growth Percent MDA-MB-435 (MDA, -MB-435): −48.29% | Growth Percent U251 (U251): 30.51% | Growth Percent IGROV1 (IGROV1): 43.88% | Growth Percent A498 [1]: 88.61% | Growth Percent COLO 205 (COLO 205): 102.93% | Growth Percent M14 (M14): 86.54% | Growth Percent UO-31 (UO-31): 73.75% | Growth Percent MDA-MB-468 (MDA-MB-468): −85.29% | Growth Percent OVCAR-8 (OVCAR-8): 6.01% | Growth Percent SF-539 (SF-539): 68.26% | Growth Percent SN12C (SN12C): 66.11% | Growth Percent SNB-75 (SNB-75): 39.58% | Growth Percent BT-549 (BT-549): 96.19% | Growth Percent KM12 (KM12): 103.02% | Growth Percent NCI-H322M (NCI-H322M): 55.30% | Growth Percent SK-OV-3 (SK-OV-3): 80.29% | Growth Percent RPMI-8226 (PRMI-8226 cell line): 43.23% | Growth Percent MCF7 (MCF7): 56.44% | Growth Percent MDA-MB-231/ATCC (MDA-MB-231/ATCC): −13.36% | Growth Percent UACC-62 (UACC-62): 43.08% | Growth Percent CCRF-CEM (CCRF-CEM): 0.65% | Growth Percent SF-295 (SF-295): 91.56% | Growth Percent HS 578T (HS 578-T): 59.96% | Growth Percent SF-268 (SF-268): 56.01% | Growth Percent PC-3 (PC-3): 38.44% | Growth Percent 786-0 (786-O): 92.60% | IC50 [2, 3]: > 15 µM | IC50 ([2]; PC-3 prostate cancer cells, read-out: IC50 in PC-3 prostate cancer cells (cell viability analysis)): > 15 µM | Growth Percent SK-MEL-28 (SK-MEL-28): 95.00% | Growth Percent OVCAR-4 (OVCAR-4): −68.15% | Growth Percent DU145 (DU145): 82.23% | Growth Percent HCC-2998 (HCC-2998): 115.02% | Growth Percent LOX IMVI (LOX IMVI): 7.49% | Growth Percent SK-MEL-2 (SK-MEL-2): −3.95% | Growth Percent MOLT-4 (MOLT-4): −20.97% | Growth Percent HL-60(TB) (HL-60, TB): 70.32% | Growth Percent NCI/ADR-RES (NCl/ADR-RES): 62.34% | Growth Percent CAKI-1 (CAKI-1): 73.77% | Growth Percent TK-10 (TK-10): 129.90% | Growth Percent HOP-62 (HOP-62): 94.98% | Growth Percent K562 (K562cell line): 10.51%

Cc1ccc(Oc2cc3c(c4nsnc24)C(=O)c2ccccc2C3=O)cc1
melting point: 244 to 245 °C

O=C1c2ccccc2C(=O)c2c1cc(S(=O)(=O)[O-])c1nsnc21.[Na+] [C3, Sodium 6,11-dioxo-6,11-dihydroanthra[2,1-c][1,2,5]thiadiazole-4-sulfonate]
melting point: 293 to 295 °C | IC50 [2, 3]: 13.3 µM
